Experimental data: US20210254138A1, “SIALIC ACID TRANSPORTER PROTEINS AS BIOMARKERS AND DRUG TARGETS” (Quadram Institute Bioscience, priority 2018, published 2021)
Entries after “also recorded” stand apart in the source; their conditions may differ.

Assays:
[1] = molecular target: RgNanA (RUMGNA_02692, sialic acid aldolase) (Mediterraneibacter gnavus, UniProt A7B555); assay: Sialic acid aldolase activity assay coupled to lactate dehydrogenase, RgNanA; details: 10 mM sialic acid, 37° C., pH 7.0, A340 nm
Method: The substrate specificity of RgNanA was determined using a coupled activity assay where pyruvate released during the conversion of sialic acid to ManNAc is converted to lactate by a lactate dehydrogenase and the subsequent loss of absorbance at 340 nm measured as NADH is converted to NAD^+. A commercially available E. coli sialic acid aldolase (EcNanA) was included as a control and enzymes were tested for activity against 2,7-anhydro-Neu5Ac and Neu5Ac. […] The kinetic parameters of RgNanA were determined by calculating the initial rate of reaction with increasing Neu5Ac concentrations. A Michaelis-Menten curve was fitted to the data and kinetic parameters determined (FIG. 7b).

[2] = molecular target: RgSBP (RUMGNA_02698, solute binding protein); assay: Isothermal titration calorimetry (ITC) of RgSBP binding; design: species or system R. gnavus ATCC 29149; details: 50 mM Tris-HCl pH 7.5; single-binding site model; triplicate
Method: Isothermal titration calorimetry (ITC) experiments were performed using the PEAQ-ITC system (Malvern, Malvern, UK) with a cell volume of 200 μl. Prior to titration, protein samples were exhaustively dialysed into 50 mM Tris-HCl pH 7.5. The ligand was dissolved in the dialysis buffer. The cell protein concentration was 100 μM and the syringe ligand concentration was 2 mM. Controls with titrant (sugar) injected into the buffer only were subtracted from the data. The analysis was performed using the Malvern software, using a single-binding site model. Experiments were carried out in triplicate.

[3] = molecular target: T1, E. coli sialic acid aldolase (EcNanA) (Escherichia coli, UniProt P0A6L4); assay: Sialic acid aldolase activity assay coupled to lactate dehydrogenase, EcNanA; format: biochemical; details: 10 mM sialic acid, 37° C., pH 7.0, A340 nm
T1 construct: purchased Carbosynth, UK CAS: 9027-60-5 (catalogue number not given)
Method: Aldolase cleavage was measured by monitoring the decrease in absorbance at 340 nm (A340 nm) as NADH is converted to NAD by lactate dehydrogenase in a coupled reaction where pyruvate is released from sialic acid by the aldolase. Reactions were performed in a 100 μl volume with final concentrations of 150 μM NADH (Sigma, St Louis, USA), 0.5 U LDH (Sigma, St Louis, USA), 10 mM sialic acid (Neu5Ac or 2,7-anhydro-Neu5Ac) and 1.5 μg purified RgNanA or EcNanA (E. coli aldolase CAS: 9027-60-5, Carbosynth, UK) in 50 mM Na-phosphate buffer (pH 7.0). The reactions were performed at 37° C. and monitored using FLUOstar OPTIMA (BMG LABTECH). For kinetics experiments, the sialic acid concentration was varied at 20, 10, 5, 4, 2, 1, 0.4, 0.2, 0.1 mM and the initial rate of reaction determined for each concentration in triplicate before analysis was performed by fitting the data to a Michaelis-Menten using Graph Pad Prism (V 5.03). […]
The first step of sialic acid metabolism is the conversion of sialic acid to ManNAc and pyruvate catalysed by a sialic acid aldolase (NanA). […] The substrate specificity of RgNanA was determined using a coupled activity assay where pyruvate released during the conversion of sialic acid to ManNAc is converted to lactate by a lactate dehydrogenase and the subsequent loss of absorbance at 340 nm measured as NADH is converted to NAD^+. […]

Chain of RgNanA (RUMGNA_02692, sialic acid aldolase) (A7B555 whole entry): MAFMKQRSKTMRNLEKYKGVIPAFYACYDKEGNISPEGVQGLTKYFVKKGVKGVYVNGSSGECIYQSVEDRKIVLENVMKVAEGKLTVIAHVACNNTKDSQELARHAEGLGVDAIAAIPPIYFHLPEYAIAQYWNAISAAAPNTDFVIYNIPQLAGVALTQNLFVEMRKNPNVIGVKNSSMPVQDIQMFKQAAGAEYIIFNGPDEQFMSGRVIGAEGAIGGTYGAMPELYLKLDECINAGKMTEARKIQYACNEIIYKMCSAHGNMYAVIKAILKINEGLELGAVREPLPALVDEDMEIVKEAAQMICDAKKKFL
T1 sequence (P0A6L4 whole entry): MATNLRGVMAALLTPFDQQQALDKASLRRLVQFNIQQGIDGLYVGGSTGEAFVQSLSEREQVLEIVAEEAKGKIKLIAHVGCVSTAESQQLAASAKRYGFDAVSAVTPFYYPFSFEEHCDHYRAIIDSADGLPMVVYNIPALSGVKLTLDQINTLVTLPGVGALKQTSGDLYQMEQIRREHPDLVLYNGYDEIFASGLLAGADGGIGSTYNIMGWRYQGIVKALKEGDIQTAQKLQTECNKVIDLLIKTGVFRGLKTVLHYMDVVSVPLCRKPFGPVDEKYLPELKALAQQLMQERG

SMILES | aldolase activity against substrate [1] | Kd (ITC) [2] | aldolase activity against substrate [3] | Kd [2]
CC(=O)N[C@H]1[C@H]([C@H](O)[C@H](O)CO)OC(O)(C(=O)O)C[C@@H]1O (stereo partly drawn) [Neu5Ac, N-acetylneuraminic acid] | showed activity | No binding was observed; also recorded: does not bind | showed activity | –
CC(=O)N[C@H]1C2OC(C(=O)O)(C[C@@H]1O)O[C@@H]2[C@H](O)CO (stereo partly drawn) [2,7-anhydro-Neu5Ac] | neither enzyme showed activity | – | neither enzyme showed activity | 2420 ± 270 nM
